This note sets out measurements from ChEMBL document CHEMBL4043147, “9,19-Cycloartenol glycoside G3 from Cimicifuga simplex regulates immune responses by modulating Th17/Treg ratio” (Bioorg Med Chem, 2017).

Common to all, as to details: C57BL/6, CD4-positive T cell
Assay [1] in a line: Inhibition of C57BL/6 mouse CD4-positive T cell differentiation at 50 uM relative to control. The class given is functional.
Assay [2] can be described thus: Inhibition of C57BL/6 mouse CD4-positive T cell differentiation at 25 uM relative to control. Type of assay: functional.
A short description of assay [3]: Inhibition of C57BL/6 mouse CD4-positive T cell differentiation at 12.5 uM relative to control. The class given is functional.
The nature of assay [4]: Inhibition of C57BL/6 mouse CD4-positive T cell differentiation at 6.25 uM relative to control. The class given is functional.
Assay [5] in a line: Inhibition of C57BL/6 mouse CD4-positive T cell differentiation. Type of assay: functional, cell-based.

What is called inhibition is the change of the read-out against control, counted positive when it falls. What is called IC50 is the midpoint of a concentration-inhibition curve. A high value points to weaker potency. `CC(=O)O[C@@H]1C[C@@]23C[C@@]24CC[C@H](O[C@@H]2O[C@H](CO)[C@H](O)[C@H](O)[C@H]2O)C(C)(C)[C@@H]4CC=C3[C@]2(C)C[C@@]3(O)O[C@H](C(=O)[C@H]4OC4(C)C)[C@@H](C)[C@@H]3[C@@]12C`: the inhibition at 50 µM in assay [1] worked out at 98.6%. This compound displayed an inhibition at 25 µM in assay [2] of 68.3%. For the same compound, in assay [3], the inhibition at 12.5 µM came to 52.4%. The same compound came in with an inhibition at 6.25 µM in assay [4] of 8.9%. The compound also had an IC50 in assay [5] of 14.3 µM.
The matching figures for `CC(=O)O[C@H]([C@H]1C[C@@H](C)C2=C(O1)[C@@H](O)[C@@]1(C)C3=CC[C@H]4C(C)(C)[C@@H](O[C@@H]5O[C@H](CO)[C@H](O)[C@H](O)[C@H]5O)CC[C@@]45C[C@@]35CC[C@]21C)C(C)(C)O`: 96.6%, 92.1%, 54.3%, 21.6% and 12.6 µM.
Taken in the same sequence, the figures for `CC(=O)O[C@H]([C@H]1C[C@@H](C)C2=C(O1)[C@@H](O)[C@@]1(C)[C@@H]3CC[C@H]4C(C)(C)[C@@H](O[C@@H]5O[C@H](CO)[C@H](O)[C@H](O)[C@H]5O)CC[C@@]45C[C@@]35CC[C@]21C)C(C)(C)O` were 96.8%, 68.3%, 21.3%, 10.2% and 14.6 µM.
`CC(=O)O[C@@H]1C[C@@]23C[C@@]24CC[C@H](O[C@@H]2OC[C@@H](O)[C@H](O)[C@H]2O)C(C)(C)[C@@H]4CC=C3[C@]2(C)C[C@]3(O)O[C@H](C(=O)[C@@H]4OC4(C)C)[C@@H](C)[C@@H]3[C@@]12C` came in with an inhibition at 50 µM in assay [1] of 99.1%. In assay [2], this compound showed an inhibition at 25 µM of 82.6%. The compound further gave an inhibition at 12.5 µM in assay [3] of 24.6%. Moreover, 6.25 µM produced 5.3% inhibition in assay [4]. This compound also came in with an IC50 in assay [5] of 17.6 µM.
The matching figures for `C[C@@H]1C[C@H]([C@@H](O)C(C)(C)O)O[C@]2(O)[C@@H](O)[C@@]3(C)C4=CC[C@H]5C(C)(C)[C@@H](O[C@@H]6O[C@H](CO)[C@H](O)[C@H](O)[C@H]6O)CC[C@@]56C[C@@]46CC[C@]3(C)[C@@H]12`: 99.6%, 74.1%, 51.5%, 10.3% and 18.3 µM.
